Measured values taken from ChEMBL document CHEMBL4043169, “Discovery of potent and selective CDK8 inhibitors through FBDD approach” (Bioorg Med Chem Lett, 2017).
Blank lines part the entries; values can stand above or below the compound they belong to.

Experiments:
[1] = target: CDK8/Cyclin C (Homo sapiens, UniProt P49336); assay: Inhibition of recombinant full length His-tagged human CDK8/Cyclin C expressed in baculovirus expression system using Ulight-GS peptide as substrate after 30 mins in presence of ATP by TR-FRET assay
[2] = system: AGS; assay: Antiproliferative activity against human AGS cells after 72 hrs by MTT assay
[3] = Clearance in mouse at 5 mg/kg, iv; type: ADME, organism-based; conditions: in vivo
[4] = Cmax in mouse at 5 mg/kg, iv; type: ADME, organism-based; set-up: dose 5 mg/kg, route intravenous; conditions: in vivo
[5] = Cmax in mouse at 25 mg/kg, po; type: ADME, organism-based; set-up: dose 25 mg/kg, route oral; conditions: in vivo
[6] = Tmax in mouse at 25 mg/kg, po; type: ADME, organism-based; conditions: in vivo
[7] = Half life in mouse at 5 mg/kg, iv; type: ADME, organism-based; conditions: in vivo
[8] = Half life in mouse at 25 mg/kg, po; type: ADME, organism-based; conditions: in vivo
[9] = Volume of distribution at steady state in mouse at 5 mg/kg, iv; type: ADME, organism-based; conditions: in vivo, read-out: Vdss
[10] = Oral bioavailability in mouse at 25 mg/kg; type: ADME, organism-based; conditions: in vivo
[11] = target: Platelet-derived growth factor receptor alpha (Homo sapiens) (UniProt P16234); assay: Inhibition of PDGFRalpha (unknown origin) at 1 uM relative to control
[12] = target: Vascular endothelial growth factor receptor 2 (Homo sapiens) (UniProt P35968); assay: Inhibition of KDR (unknown origin) at 1 uM relative to control
[13] = target: Fibroblast growth factor receptor 1 (Homo sapiens) (UniProt P11362); assay: Inhibition of FGFR1 (unknown origin) at 1 uM relative to control
[14] = target: Tyrosine-protein kinase JAK2 (Homo sapiens) (UniProt O60674); assay: Inhibition of JAK2 (unknown origin) at 1 uM relative to control
[15] = species on record: Homo sapiens; assay: Inhibition of P70S6K (unknown origin) at 1 uM relative to control
[16] = target: Calcium/calmodulin-dependent protein kinase type IV (Homo sapiens) (UniProt Q16566); assay: Inhibition of CAMK4 (unknown origin) at 1 uM relative to control
[17] = target: Angiopoietin-1 receptor (Homo sapiens) (UniProt Q02763); assay: Inhibition of TIE2 (unknown origin) at 1 uM relative to control
[18] = target: Mast/stem cell growth factor receptor Kit (Homo sapiens) (UniProt P10721); assay: Inhibition of cKIT (unknown origin) at 1 uM relative to control
[19] = target: Mitogen-activated protein kinase 14 (Homo sapiens) (UniProt Q16539); assay: Inhibition of p38alpha (unknown origin) at 1 uM relative to control
[20] = target: Serine/threonine-protein kinase PAK 4 (Homo sapiens) (UniProt O96013); assay: Inhibition of PAK4 (unknown origin) at 1 uM relative to control
[21] = target: Serine/threonine-protein kinase Sgk1 (Homo sapiens) (UniProt O00141); assay: Inhibition of SGK (unknown origin) at 1 uM relative to control
[22] = target: Tyrosine-protein kinase ABL1 (Homo sapiens) (UniProt P00519); assay: Inhibition of ABL (unknown origin) at 1 uM relative to control
[23] = target: Inhibitor of nuclear factor kappa-B kinase subunit beta (Homo sapiens) (UniProt O14920); assay: Inhibition of IKKbeta (unknown origin) at 1 uM relative to control
[24] = target: Proto-oncogene tyrosine-protein kinase Src (Homo sapiens) (UniProt P12931); assay: Inhibition of SRC (unknown origin) at 1 uM relative to control
[25] = target: Tyrosine-protein kinase Lck (Homo sapiens) (UniProt P06239); assay: Inhibition of LCK (unknown origin) at 1 uM relative to control
[26] = target: Ephrin type-A receptor 1 (Homo sapiens) (UniProt P21709); assay: Inhibition of EPHA1 (unknown origin) at 1 uM relative to control
[27] = target: ALK tyrosine kinase receptor (Homo sapiens) (UniProt Q9UM73); assay: Inhibition of ALK (unknown origin) at 1 uM relative to control
[28] = target: Epidermal growth factor receptor (Homo sapiens) (UniProt P00533); assay: Inhibition of EGFR (unknown origin) at 1 uM relative to control
[29] = target: RAC-alpha serine/threonine-protein kinase (Homo sapiens) (UniProt P31749); assay: Inhibition of AKT1 (unknown origin) at 1 uM relative to control
[30] = target: Insulin-like growth factor 1 receptor (Homo sapiens) (UniProt P08069); assay: Inhibition of IGF1R (unknown origin) at 1 uM relative to control
[31] = target: Ribosomal protein S6 kinase alpha-1 (Homo sapiens) (UniProt Q15418); assay: Inhibition of RSK1 (unknown origin) at 1 uM relative to control
[32] = target: Ribosomal protein S6 kinase alpha-2 (Homo sapiens) (UniProt Q15349); assay: Inhibition of RSK2 (unknown origin) at 1 uM relative to control
[33] = target: Ribosomal protein S6 kinase alpha-5 (Homo sapiens) (UniProt O75582); assay: Inhibition of MSK1 (unknown origin) at 1 uM relative to control
[34] = target: Ribosomal protein S6 kinase alpha-4 (Homo sapiens) (UniProt O75676); assay: Inhibition of MSK2 (unknown origin) at 1 uM relative to control
[35] = target: Serine/threonine-protein kinase pim-1 (Homo sapiens) (UniProt P11309); assay: Inhibition of PIM1 (unknown origin) at 1 uM relative to control
[36] = target: Protein kinase C alpha type (Homo sapiens) (UniProt P17252); assay: Inhibition of PKCalpha (unknown origin) at 1 uM relative to control
[37] = target: Rho-associated protein kinase 1 (Homo sapiens) (UniProt Q13464); assay: Inhibition of ROCK1 (unknown origin) at 1 uM relative to control
[38] = target: Glycogen synthase kinase-3 beta (Homo sapiens) (UniProt P49841); assay: Inhibition of Gsk3beta (unknown origin) at 1 uM relative to control
[39] = target: Mitogen-activated protein kinase 9 (Homo sapiens) (UniProt P45984); assay: Inhibition of JNK2 (unknown origin) at 1 uM relative to control
[40] = target: Serine/threonine-protein kinase MARK1 (Homo sapiens) (UniProt Q9P0L2); assay: Inhibition of MARK1 (unknown origin) at 1 uM relative to control
[41] = target: Serine/threonine-protein kinase 4 (Homo sapiens) (UniProt Q13043); assay: Inhibition of MST1 (unknown origin) at 1 uM relative to control
[42] = target: Casein kinase I isoform delta (Homo sapiens) (UniProt P48730); assay: Inhibition of CK1delta (unknown origin) at 1 uM relative to control
[43] = target: Aurora kinase B (Homo sapiens) (UniProt Q96GD4); assay: Inhibition of AurB (unknown origin) at 1 uM relative to control
[44] = target: Aurora kinase A (Homo sapiens) (UniProt O14965); assay: Inhibition of AurA (unknown origin) at 1 uM relative to control
[45] = target: 5'-AMP-activated protein kinase catalytic subunit alpha-1 (Homo sapiens) (UniProt Q13131); assay: Inhibition of AMPKa1 (unknown origin) at 1 uM relative to control
[46] = target: Receptor-type tyrosine-protein kinase FLT3 (Homo sapiens) (UniProt P36888); assay: Inhibition of FLT3 (unknown origin) at 1 uM relative to control
[47] = target: Hepatocyte growth factor receptor (Homo sapiens) (UniProt P08581); assay: Inhibition of cMET (unknown origin) at 1 uM relative to control
[48] = target: Interleukin-1 receptor-associated kinase 1 (Homo sapiens) (UniProt P51617); assay: Inhibition of IRAK1 (unknown origin) at 1 uM relative to control
[49] = target: Mitogen-activated protein kinase 3 (Homo sapiens) (UniProt P27361); assay: Inhibition of ERK1 (unknown origin) at 1 uM relative to control
[50] = target: Receptor tyrosine-protein kinase erbB-2 (Homo sapiens) (UniProt P04626); assay: Inhibition of HER2 (unknown origin) at 1 uM relative to control
[51] = target: Cyclin-dependent kinase 2 (Homo sapiens) (UniProt P24941); assay: Inhibition of CDK2 (unknown origin) at 1 uM relative to control
[52] = target: Cyclin-dependent kinase 6 (Homo sapiens) (UniProt Q00534); assay: Inhibition of CDK6 (unknown origin) at 1 uM relative to control
[53] = target: 3-phosphoinositide-dependent protein kinase 1 (Homo sapiens) (UniProt O15530); assay: Inhibition of PDK1 (unknown origin) at 1 uM relative to control

CDK8/Cyclin C, sequence (P49336 whole entry): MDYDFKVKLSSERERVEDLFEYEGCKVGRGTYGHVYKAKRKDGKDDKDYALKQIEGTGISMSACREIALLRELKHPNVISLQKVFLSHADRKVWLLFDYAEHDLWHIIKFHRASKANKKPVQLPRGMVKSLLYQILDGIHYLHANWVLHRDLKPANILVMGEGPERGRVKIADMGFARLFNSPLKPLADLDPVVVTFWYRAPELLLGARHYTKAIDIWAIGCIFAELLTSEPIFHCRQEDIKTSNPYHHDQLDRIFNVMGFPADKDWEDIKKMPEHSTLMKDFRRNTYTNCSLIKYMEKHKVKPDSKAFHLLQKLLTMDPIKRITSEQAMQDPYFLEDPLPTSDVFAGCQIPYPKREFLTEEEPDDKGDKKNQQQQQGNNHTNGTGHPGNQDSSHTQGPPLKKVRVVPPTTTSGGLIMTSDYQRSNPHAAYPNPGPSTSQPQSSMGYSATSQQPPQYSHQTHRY
CDK8/Cyclin C, sequence (P24863 whole entry, further chain): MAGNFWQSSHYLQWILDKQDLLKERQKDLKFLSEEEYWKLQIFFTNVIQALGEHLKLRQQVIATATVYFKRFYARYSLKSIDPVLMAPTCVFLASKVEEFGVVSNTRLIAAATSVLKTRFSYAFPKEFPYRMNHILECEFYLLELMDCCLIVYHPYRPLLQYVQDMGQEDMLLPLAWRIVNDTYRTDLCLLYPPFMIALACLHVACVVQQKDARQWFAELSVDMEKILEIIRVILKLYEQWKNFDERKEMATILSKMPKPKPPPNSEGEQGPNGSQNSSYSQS
Platelet-derived growth factor receptor alpha (Homo sapiens), sequence (P16234 whole entry): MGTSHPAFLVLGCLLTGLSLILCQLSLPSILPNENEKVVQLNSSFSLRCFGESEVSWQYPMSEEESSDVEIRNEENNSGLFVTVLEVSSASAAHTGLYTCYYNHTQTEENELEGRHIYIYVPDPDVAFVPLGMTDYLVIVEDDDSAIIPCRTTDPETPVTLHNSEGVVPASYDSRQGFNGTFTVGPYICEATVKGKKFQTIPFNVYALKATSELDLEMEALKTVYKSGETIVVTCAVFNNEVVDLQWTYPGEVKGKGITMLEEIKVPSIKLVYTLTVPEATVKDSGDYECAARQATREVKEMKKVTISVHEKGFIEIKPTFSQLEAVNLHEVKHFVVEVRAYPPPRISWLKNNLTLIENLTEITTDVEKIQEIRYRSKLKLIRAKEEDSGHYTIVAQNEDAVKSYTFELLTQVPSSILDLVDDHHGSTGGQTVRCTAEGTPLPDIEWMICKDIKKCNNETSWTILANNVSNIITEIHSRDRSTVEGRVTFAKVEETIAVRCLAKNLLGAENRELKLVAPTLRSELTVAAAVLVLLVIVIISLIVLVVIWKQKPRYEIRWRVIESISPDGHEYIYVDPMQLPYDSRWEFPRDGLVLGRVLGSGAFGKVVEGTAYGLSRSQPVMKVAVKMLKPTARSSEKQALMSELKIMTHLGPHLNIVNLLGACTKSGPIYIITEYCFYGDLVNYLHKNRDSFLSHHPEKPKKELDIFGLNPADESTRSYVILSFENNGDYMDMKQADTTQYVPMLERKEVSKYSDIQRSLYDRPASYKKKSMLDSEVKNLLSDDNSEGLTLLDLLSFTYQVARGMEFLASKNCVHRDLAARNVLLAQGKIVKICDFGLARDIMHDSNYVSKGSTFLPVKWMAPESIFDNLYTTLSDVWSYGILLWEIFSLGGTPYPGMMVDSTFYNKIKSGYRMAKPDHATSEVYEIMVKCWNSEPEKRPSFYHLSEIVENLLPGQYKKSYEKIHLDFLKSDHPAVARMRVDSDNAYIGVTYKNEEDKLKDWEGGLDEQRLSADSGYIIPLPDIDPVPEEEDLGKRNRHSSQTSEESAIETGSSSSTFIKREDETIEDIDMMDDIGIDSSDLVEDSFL
Hepatocyte growth factor receptor (Homo sapiens), sequence (P08581 whole entry): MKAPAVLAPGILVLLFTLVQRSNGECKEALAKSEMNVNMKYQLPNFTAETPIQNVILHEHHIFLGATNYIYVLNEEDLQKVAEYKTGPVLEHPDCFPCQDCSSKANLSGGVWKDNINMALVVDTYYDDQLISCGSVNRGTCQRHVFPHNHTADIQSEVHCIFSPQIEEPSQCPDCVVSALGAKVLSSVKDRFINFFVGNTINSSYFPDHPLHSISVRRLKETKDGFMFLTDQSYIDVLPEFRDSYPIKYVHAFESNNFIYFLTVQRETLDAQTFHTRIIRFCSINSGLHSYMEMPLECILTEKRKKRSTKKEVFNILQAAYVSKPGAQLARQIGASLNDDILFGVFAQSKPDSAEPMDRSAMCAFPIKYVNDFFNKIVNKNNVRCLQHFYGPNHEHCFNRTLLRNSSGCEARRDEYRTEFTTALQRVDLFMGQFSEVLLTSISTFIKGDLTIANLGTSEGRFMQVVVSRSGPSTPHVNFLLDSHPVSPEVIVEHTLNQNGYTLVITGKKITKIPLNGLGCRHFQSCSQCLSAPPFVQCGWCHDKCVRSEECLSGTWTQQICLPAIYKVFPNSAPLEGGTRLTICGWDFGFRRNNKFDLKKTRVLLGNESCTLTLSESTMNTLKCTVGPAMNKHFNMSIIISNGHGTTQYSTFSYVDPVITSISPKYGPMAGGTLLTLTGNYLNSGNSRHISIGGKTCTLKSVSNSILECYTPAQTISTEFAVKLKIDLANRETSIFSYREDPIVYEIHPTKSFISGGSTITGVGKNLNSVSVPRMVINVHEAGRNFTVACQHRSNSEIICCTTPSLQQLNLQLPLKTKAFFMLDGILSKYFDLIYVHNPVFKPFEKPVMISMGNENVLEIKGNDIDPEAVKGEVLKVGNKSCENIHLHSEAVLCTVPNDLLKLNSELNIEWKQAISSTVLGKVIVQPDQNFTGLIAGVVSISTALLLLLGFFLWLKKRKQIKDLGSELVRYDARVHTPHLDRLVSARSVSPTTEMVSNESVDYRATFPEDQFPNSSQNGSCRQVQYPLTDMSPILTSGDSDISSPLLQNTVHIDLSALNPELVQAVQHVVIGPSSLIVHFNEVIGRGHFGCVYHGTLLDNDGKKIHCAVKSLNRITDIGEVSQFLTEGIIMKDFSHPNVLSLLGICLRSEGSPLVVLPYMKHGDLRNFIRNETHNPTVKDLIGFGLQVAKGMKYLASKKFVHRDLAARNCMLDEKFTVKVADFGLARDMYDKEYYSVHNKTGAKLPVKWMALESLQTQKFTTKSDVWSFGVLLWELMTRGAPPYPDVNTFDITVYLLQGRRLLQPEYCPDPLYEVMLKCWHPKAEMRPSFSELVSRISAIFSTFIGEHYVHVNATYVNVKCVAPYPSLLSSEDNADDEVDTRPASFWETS
Mitogen-activated protein kinase 9 (Homo sapiens), sequence (P45984 whole entry, looked up): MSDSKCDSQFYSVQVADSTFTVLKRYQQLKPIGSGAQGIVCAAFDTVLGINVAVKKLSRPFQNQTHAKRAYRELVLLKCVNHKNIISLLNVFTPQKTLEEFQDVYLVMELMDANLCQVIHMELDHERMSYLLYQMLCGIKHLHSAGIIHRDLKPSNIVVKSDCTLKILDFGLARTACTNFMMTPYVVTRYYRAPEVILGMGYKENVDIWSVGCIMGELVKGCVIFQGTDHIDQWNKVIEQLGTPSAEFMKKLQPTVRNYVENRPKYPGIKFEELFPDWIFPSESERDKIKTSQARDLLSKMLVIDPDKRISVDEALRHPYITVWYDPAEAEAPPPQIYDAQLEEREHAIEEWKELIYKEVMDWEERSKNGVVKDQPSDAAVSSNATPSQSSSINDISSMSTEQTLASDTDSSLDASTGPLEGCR
Angiopoietin-1 receptor (Homo sapiens), sequence (Q02763 whole entry): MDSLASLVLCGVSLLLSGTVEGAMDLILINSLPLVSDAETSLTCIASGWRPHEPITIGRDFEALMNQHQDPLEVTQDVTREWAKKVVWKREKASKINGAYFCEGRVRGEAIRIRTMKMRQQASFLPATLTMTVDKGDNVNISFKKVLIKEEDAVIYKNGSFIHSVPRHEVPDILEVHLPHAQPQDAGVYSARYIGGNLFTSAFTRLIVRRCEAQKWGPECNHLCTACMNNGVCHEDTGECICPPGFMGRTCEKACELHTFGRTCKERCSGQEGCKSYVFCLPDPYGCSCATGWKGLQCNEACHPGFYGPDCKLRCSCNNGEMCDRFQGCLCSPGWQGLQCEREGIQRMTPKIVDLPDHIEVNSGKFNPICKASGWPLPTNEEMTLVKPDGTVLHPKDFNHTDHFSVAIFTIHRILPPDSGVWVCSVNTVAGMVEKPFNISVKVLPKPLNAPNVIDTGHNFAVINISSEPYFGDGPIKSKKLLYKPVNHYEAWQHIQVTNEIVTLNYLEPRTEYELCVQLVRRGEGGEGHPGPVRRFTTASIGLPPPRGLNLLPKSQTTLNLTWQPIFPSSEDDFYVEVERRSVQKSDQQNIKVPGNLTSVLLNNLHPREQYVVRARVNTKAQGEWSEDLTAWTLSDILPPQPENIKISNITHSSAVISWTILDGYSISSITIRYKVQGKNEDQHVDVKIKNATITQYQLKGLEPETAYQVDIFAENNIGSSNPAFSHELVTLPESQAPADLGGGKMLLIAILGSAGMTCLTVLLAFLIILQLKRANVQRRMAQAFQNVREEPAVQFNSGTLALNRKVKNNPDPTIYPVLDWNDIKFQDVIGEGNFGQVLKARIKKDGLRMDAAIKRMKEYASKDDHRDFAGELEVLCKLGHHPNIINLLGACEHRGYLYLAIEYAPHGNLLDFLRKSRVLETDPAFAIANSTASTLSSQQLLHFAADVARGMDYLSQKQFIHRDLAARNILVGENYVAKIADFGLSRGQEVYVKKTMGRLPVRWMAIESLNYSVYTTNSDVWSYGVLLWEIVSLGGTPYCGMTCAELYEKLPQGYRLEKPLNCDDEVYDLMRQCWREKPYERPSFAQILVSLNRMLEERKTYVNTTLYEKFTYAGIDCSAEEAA

Structure (SMILES): N#Cc1cc(-c2ccncc2)c[nH]1
- IC50 [1]: 280 nM

Structure (SMILES): NC(=O)c1cc(-c2ccncc2)cn1Cc1ccccc1
- IC50 [1]: 170 nM

Structure (SMILES): Cc1cc(-c2c[nH]c(C(N)=O)c2)ccn1
- IC50 [1]: 480 nM

Structure (SMILES): NC(=O)c1[nH]cc(-c2ccncc2)c1C(F)(F)F
- IC50 [2]: 270 nM
- IC50 [1]: 3 nM
- clearance [3]: 8.87 mL/min/kg
- Cmax [4]: 9940 ng/mL
- Cmax [5]: 12700 ng/mL
- Tmax [6]: 15 min
- half-life [7]: 50.4 min
- half-life [8]: 475 min
- Vd [9]: 0.49 L/kg
- bioavailability [10]: 57.5%

Structure (SMILES): CNC(=O)c1cc(-c2ccncc2)c[nH]1
- IC50 [1]: 410 nM

Structure (SMILES): Cc1c(-c2ccncc2)c[nH]c1C(N)=O
- IC50 [2]: 800 nM
- IC50 [1]: 8 nM
- inhibition [11]: < 20%
- inhibition [12]: < 20%
- inhibition [13]: < 20%
- inhibition [14]: < 20%
- inhibition [15]: < 20%
- inhibition [16]: < 20%
- inhibition [17]: < 20%
- inhibition [18]: < 20%
- inhibition [19]: < 20%
- inhibition [20]: < 20%
- inhibition [21]: < 20%
- inhibition [22]: < 20%
- inhibition [23]: < 20%
- inhibition [24]: < 20%
- inhibition [25]: < 20%
- inhibition [26]: < 20%
- inhibition [27]: < 20%
- inhibition [28]: < 20%
- inhibition [29]: < 20%
- inhibition [30]: < 20%
- inhibition [31]: < 20%
- inhibition [32]: < 20%
- inhibition [33]: < 20%
- inhibition [34]: < 20%
- inhibition [35]: < 20%
- inhibition [36]: < 20%
- inhibition [37]: < 20%
- inhibition [38]: < 20%
- inhibition [39]: < 20%
- inhibition [40]: < 20%
- inhibition [41]: < 20%
- inhibition [42]: < 20%
- inhibition [43]: < 20%
- inhibition [44]: < 20%
- inhibition [45]: < 20%
- inhibition [46]: < 20%
- inhibition [47]: < 20%
- inhibition [48]: < 20%
- inhibition [49]: < 20%
- inhibition [50]: < 20%
- inhibition [51]: < 20%
- inhibition [52]: < 20%
- inhibition [53]: < 20%

Structure (SMILES): NC(=O)c1cc(-c2ccnc(Cl)c2)c[nH]1
- IC50 [1]: 350 nM

Structure (SMILES): CCc1c(-c2ccncc2)c[nH]c1C(N)=O
- IC50 [2]: 1120 nM
- IC50 [1]: 13 nM

Structure (SMILES): NC(=O)c1[nH]cc(-c2ccncc2)c1Cl
- IC50 [2]: 370 nM
- IC50 [1]: 5 nM

Structure (SMILES): Cn1cc(-c2ccncc2)cc1C(N)=O
- IC50 [1]: 4950 nM

Structure (SMILES): Cc1cnccc1-c1c[nH]c(C(N)=O)c1C
- IC50 [2]: 1170 nM
- IC50 [1]: 10 nM

Structure (SMILES): Cc1[nH]c(C(N)=O)cc1-c1ccncc1
- IC50 [1]: 240 nM

Structure (SMILES): CCc1cnccc1-c1c[nH]c(C#N)c1
- IC50 [1]: 4630 nM

Further compounds by falling IC50 [1], results first:

- IC50 [1]: 170 nM
Structure (SMILES): NC(=O)c1cc(-c2ccncc2)c[nH]1

- IC50 [1]: 160 nM
Structure (SMILES): NC(=O)c1cc(-c2ccncc2)c(Cl)[nH]1

- IC50 [1]: 87 nM
Structure (SMILES): Cc1cnccc1-c1c[nH]c(C(N)=O)c1

- IC50 [1]: 37 nM
Structure (SMILES): NC(=O)c1cc(-c2ccncc2Br)c[nH]1

- IC50 [1]: 19 nM
Structure (SMILES): Cc1cc(-c2c[nH]c(C(N)=O)c2C)ccn1

- IC50 [1]: 19 nM
Structure (SMILES): NC(=O)c1cc(-c2ccncc2Cl)c[nH]1
